Results reported in patent publication US20250388589A1, “TRICYCLIC HETEROCYCLIC DERIVATIVES, COMPOSITIONS AND USES THEREOF” (Danatlas Pharmaceuticals Co., Ltd., priority 2022, published 2025).

Experiments:
[1] = target: hPARG (C-terminal His6-tag) (Homo sapiens (Human), UniProt Q86W56); experiment: PARG Enzymatic Activity Assay (HTRF); type: biochemical; conditions: hPARG 65 pM final, biotinylated-NAD ribosylated PARP1 8 nM final
Outline: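 E. coli-expressed enzyme (65 pM final) preincubated 60 min RT with compounds (10-point 4-fold dilution, duplicate) in 50 mM Tris pH 7.4, 3 mM EDTA, 1 mM DTT, 50 mM KCl, 0.01% Tween 20. Biotinylated-NAD ribosylated PARP1 substrate (8 nM final) reacted 10 min RT; Eu-streptavidin/anti-6HIS-XL665 HTRF read 665/620 nm after 60 min. IC50 from 4-parameter Hill fit.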

Kuramochi cell line = experiment: Cell Viability Assay (Cell Titer-Glo, 7 days); type: cell-based; conditions: 168 h, Kuramochi cells, 7 days incubation, read-out: PARG Cell viability (IC50)
Outline: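 Kuramochi cells in RPMI with 10% FBS, seeded at 400 cells/well, were treated with a 9-point 3-fold dilution series in duplicate for 7 days at 37 °C, 5% CO2. Viability by CellTiter-Glo luminescence, normalised to DMSO and medium-only controls; IC50 from 4-parameter Hill fit.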

hPARG (C-terminal His6-tag), sequence (Q86W56 whole entry): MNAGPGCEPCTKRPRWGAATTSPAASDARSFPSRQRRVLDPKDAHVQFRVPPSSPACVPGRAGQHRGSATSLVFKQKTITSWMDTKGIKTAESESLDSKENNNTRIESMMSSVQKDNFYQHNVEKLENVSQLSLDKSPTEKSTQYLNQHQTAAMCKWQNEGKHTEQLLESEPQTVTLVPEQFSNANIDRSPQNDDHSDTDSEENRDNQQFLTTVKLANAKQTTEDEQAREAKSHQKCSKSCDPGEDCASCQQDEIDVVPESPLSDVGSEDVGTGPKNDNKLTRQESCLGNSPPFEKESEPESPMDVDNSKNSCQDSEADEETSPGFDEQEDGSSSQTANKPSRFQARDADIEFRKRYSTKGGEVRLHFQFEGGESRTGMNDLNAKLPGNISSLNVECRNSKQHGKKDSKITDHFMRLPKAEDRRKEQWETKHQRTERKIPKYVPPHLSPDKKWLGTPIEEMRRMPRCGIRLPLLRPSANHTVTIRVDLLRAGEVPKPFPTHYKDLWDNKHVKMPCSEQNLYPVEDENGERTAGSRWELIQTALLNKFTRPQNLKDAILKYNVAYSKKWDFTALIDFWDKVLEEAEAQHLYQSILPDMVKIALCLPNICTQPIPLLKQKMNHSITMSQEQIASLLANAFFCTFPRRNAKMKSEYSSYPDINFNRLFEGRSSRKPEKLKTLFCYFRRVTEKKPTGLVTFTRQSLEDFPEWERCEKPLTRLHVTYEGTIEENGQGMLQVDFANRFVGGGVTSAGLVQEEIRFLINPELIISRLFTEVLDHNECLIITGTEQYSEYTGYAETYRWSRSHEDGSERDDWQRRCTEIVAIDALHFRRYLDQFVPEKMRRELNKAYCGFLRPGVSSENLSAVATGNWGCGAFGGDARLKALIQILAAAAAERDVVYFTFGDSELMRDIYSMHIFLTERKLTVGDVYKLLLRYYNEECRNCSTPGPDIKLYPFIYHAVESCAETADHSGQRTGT

Row | SMILES | IC50 [1] | IC50 (Kuramochi cell line)
1 | C[C@@H]1CN(C(=O)N(C)C)[C@@H](C)CN1c1ncnc2c1c1ccc(S(=O)(=O)NC3(C#N)CC3)cc1n2-c1nnc(C(F)F)s1 [Example 59, (2S,5R)-4-(7-(N-(1-Cyanocyclopropyl)sulfamoyl)-9-(5-(difluoromethyl)-1,3,4-thiadiazol-2-yl)-9H-pyrimido[4,5-b]indol-4-yl)-N,N,2,5-tetramethylpiperazine-1-carboxamide] | < 100 nM | < 100 nM
2 | N#CC1(NS(=O)(=O)c2ccc3c4c(N5CCN(C(=O)C6CCC6)CC5)ncnc4n(-c4nnc(C(F)F)s4)c3c2)CC1 [Example 30, N-(1-Cyanocyclopropyl)-4-(4-(cyclobutanecarbonyl)piperazin-1-yl)-9-(5-(difluoromethyl)-1,3,4-thiadiazol-2-yl)-9H-pyrimido[4,5-b]indole-7-sulfonamide] | < 100 nM | 100 to 1000 nM
3 | CC(C)C(=O)N1CCC(c2ncnc3c2c2cc(F)c(S(=O)(=O)NC4(C#N)CC4)cc2n3-c2nnc(C(F)F)s2)CC1 [Example 90, N-(1-Cyanocyclopropyl)-9-(5-(difluoromethyl)-1,3,4-thiadiazol-2-yl)-6-fluoro-4-(1-isobutyrylpiperidin-4-yl)-9H-pyrimido[4,5-b]indole-7-sulfonamide] | < 100 nM | < 100 nM
4 | CN1CC(C(=O)N2CCN(c3ncnc4c3c3ccc(S(=O)(=O)NC5(C#N)CC5)cc3n4-c3nnc(C(F)F)s3)CC2)C1 [Example 65, N-(1-Cyanocyclopropyl)-9-(5-(difluoromethyl)-1,3,4-thiadiazol-2-yl)-4-(4-(1-methylazetidine-3-carbonyl)piperazin-1-yl)-9H-pyrimido [4,5-b]indole-7-sulfonamide] | < 100 nM | 100 to 1000 nM
5 | C[C@@H]1CN(c2ncnc3c2c2ccc(S(=O)(=O)NC4(C#N)CC4)cc2n3-c2nnc(C(F)F)s2)CCN1C(=O)C1CCC1 [Example 5, (R)-N-(1-Cyanocyclopropyl)-4-(4-(cyclobutanecarbonyl)-3-methylpiperazin-1-yl)-9-(5-(difluoromethyl)-1,3,4-thiadiazol-2-yl)-9H-pyrimido[4,5-b]indole-7-sulfonamide] | < 100 nM | 100 to 1000 nM
6 | N#CC1(NS(=O)(=O)c2cc3c(cc2F)c2c(N4CCC(O)CC4)ncnc2n3-c2nnc(C(F)F)s2)CC1 [Example 55, N-(1-Cyanocyclopropyl)-9-(5-(difluoromethyl)-1,3,4-thiadiazol-2-yl)-6-fluoro-4-(4-hydroxypiperidin-1-yl)-9H-pyrimido[4,5-b]indole-7-sulfonamide] | < 100 nM | < 100 nM
7 | CN(C)C(=O)N1CCN(c2ncnc3c2c2ccc(S(=O)(=O)NC4(C#N)CC4)cc2n3-c2nnc(C(F)F)s2)CC1 [Example 6, 4-(7-(N-(1-Cyanocyclopropyl)sulfamoyl)-9-(5-(difluoromethyl)-1,3,4-thiadiazol-2-yl)-9H-pyrimido[4,5-b]indol-4-yl)-N,N-dimethylpiperazine-1-carboxamide] | < 100 nM | < 100 nM
8 | CC(C)S(=O)(=O)N1CCC(c2ncnc3c2c2ccc(S(=O)(=O)NC4(C#N)CC4)cc2n3-c2nnc(C(F)F)s2)CC1 [Example 123, N-(1-Cyanocyclopropyl)-9-(5-(difluoromethyl)-1,3,4-thiadiazol-2-yl)-4-(1-(isopropylsulfonyl)piperidin-4-yl)-9H-pyrimido[4,5-b]indole-7-sulfonamide] | < 100 nM | < 100 nM
9 | N#CC1(NS(=O)(=O)c2ccc3c4c(C5CCOCC5)ncnc4n(-c4nnc(C(F)F)s4)c3c2)CC1 [Example 79, N-(1-Cyanocyclopropyl)-9-(5-(difluoromethyl)-1,3,4-thiadiazol-2-yl)-4-(tetrahydro-2H-pyran-4-yl)-9H-pyrimido[4,5-b]indole-7-sulfonamide] | < 100 nM | < 100 nM
10 | C[C@H]1CN(c2ncnc3c2c2ccc(S(=O)(=O)NC4(C#N)CC4)cc2n3-c2nnc(C(F)F)s2)CCO1 [Example 50, (S)-N-(1-Cyanocyclopropyl)-9-(5-(difluoromethyl)-1,3,4-thiadiazol-2-yl)-4-(2-methylmorpholino)-9H-pyrimido[4,5-b]indole-7-sulfonamide] | < 100 nM | < 100 nM

Continued, in another order:

Row | IC50 [1] | SMILES | IC50 (Kuramochi cell line)
11 | < 100 nM | N#CC1(NS(=O)(=O)c2ccc3c4c(C5CCN(C(=O)[C@H]6CCCN6)CC5)ncnc4n(-c4nnc(C(F)F)s4)c3c2)CC1 [Example 125, (R)-N-(1-cyanocyclopropyl)-9-(5-(difluoromethyl)-1,3,4-thiadiazol-2-yl)-4-(1-prolylpiperidin-4-yl)-9H-pyrimido[4,5-b]indole-7-sulfonamide] | 100 to 1000 nM
12 | < 100 nM | N#CC1(NS(=O)(=O)c2ccc3c4c(N5CC[C@@H](O)[C@@H](F)C5)ncnc4n(-c4nnc(C(F)F)s4)c3c2)CC1 [Example 174, N-(1-cyanocyclopropyl)-9-(5-(difluoromethyl)-1,3,4-thiadiazol-2-yl)-4-((3S,4R)-3-fluoro-4-hydroxypiperidin-1-yl)-9H-pyrimido[4,5-b]indole-7-sulfonamide] | < 100 nM
13 | < 100 nM | CO[C@H]1CCN(c2ncnc3c2c2ccc(S(=O)(=O)NC4(C#N)CC4)cc2n3-c2nnc(C(F)F)s2)C[C@@H]1F [Example 172, N-(1-cyanocyclopropyl)-9-(5-(difluoromethyl)-1,3,4-thiadiazol-2-yl)-4-((3S,4S)-3-fluoro-4-methoxypiperidin-1-yl)-9H-pyrimido[4,5-b]indole-7-sulfonamide] | < 100 nM
14 | < 100 nM | N#CC1(NS(=O)(=O)c2ccc3c4c(C5CCN(C(=O)N6CCOCC6)CC5)ncnc4n(-c4nnc(C(F)F)s4)c3c2)CC1 [Example 140, N-(1-cyanocyclo-propyl)-9-(5-(difluoromethyl)-1,3,4-thiadiazol-2-yl)-4-(1-(morpholine-4-carbonyl)piperidin-4-yl)-9H-pyrimido [4,5-b]indole-7-sulfonamide] | < 100 nM
15 | < 100 nM | CC(C)C(=O)N1CCN(c2ncnc3c2c2ccc(S(=O)(=O)NC4(C#N)CC4)cc2n3-c2nnc(C(F)F)s2)C[C@@H]1CO [Example 154, (R)—N-(1-Cyanocyclopropyl)-9-(5-(difluoromethyl)-1,3,4-thiadiazol-2-yl)-4-(3-(hydroxymethyl)-4-isobutyrylpiperazin-1-yl)-9H-pyrimido[4,5-b]indole-7-sulfonamide] | < 100 nM
16 | < 100 nM | CC(O)CN(C)C(=O)N1CCC(c2ncnc3c2c2ccc(S(=O)(=O)NC4(C#N)CC4)cc2n3-c2nnc(C(F)F)s2)CC1 (stereo not shown) [Example 142, 4-(7-(N-(1-cyanocyclo-propyl)sulfamoyl)-9-(5-(difluoromethyl)-1,3,4-thiadiazol-2-yl)-9H-pyrimido[4,5-b]indol-4-yl)-N-(2-hydroxypropyl)-N-methylpiperidine-1-carboxamide] | < 100 nM
17 | < 100 nM | CCCN1CCN(c2ncnc3c2c2ccc(S(=O)(=O)NC4(C#N)CC4)cc2n3-c2nnc(C(F)F)s2)C[C@@H]1C [Example 157, (S)-N-(1-cyanocyclopropyl)-9-(5-(difluoromethyl)-1,3,4-thiadiazol-2-yl)-4-(3-methyl-4-propylpiperazin-1-yl)-9H-pyrimido[4,5-b]indole-7-sulfonamide] | < 100 nM
